Columns and labels:
late watergrass = assay: Test Example 1: herbicidal activity, application before weed generation under submerged conditions (Table 16, symbol A); type: in vivo, late watergrass (Echinochloa oryzicola); conditions: 320 g/ha applied herbicide
Method in brief: (§1)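 Emulsion formulation, water-diluted to set dose, was put onto the flooded surface (4 cm depth, alluvial soil) the same day weeds were sown and 2.5-leaf rice transplanted. After 3 weeks at 25-30 °C under glass, each species was rated 0 (≤5% kill) to 5 (≥90% kill).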

Japanese bulrush [1] = assay: Test Example 1: herbicidal activity, application before weed generation under submerged conditions (Table 16, symbol B); type: in vivo, Japanese bulrush (Schoenoplectus juncoides); conditions: 320 g/ha applied herbicide
Method in brief: as §1

oval-leafed pondweed [2] = assay: Test Example 1: herbicidal activity, application before weed generation under submerged conditions (Table 16, symbol C); type: in vivo, oval-leafed pondweed (Monochoria vaginalis); conditions: 320 g/ha applied herbicide
Method in brief: as §1

Japanese bulrush [3] = assay: Test Example 2: herbicidal activity, application during weed generation under submerged conditions (Table 17, symbol B); type: in vivo, Japanese bulrush (Schoenoplectus juncoides); conditions: AAH 320 g/ha; application during weed generation, submerged conditions
Description: (§2) [Test Example 2] Herbicidal Activity Test by Application during Weed Generation under Submerged Conditions After alluvial soil was placed into 1/10000 are of Wagner pot, water was poured and mixed to form a submerged condition having a water depth of 4 cm. Seeds of late watergrass, Japanese bulrush, and oval-leafed pondweed were sowed in a mixed manner in the aforementioned pot, and the pot was placed in a greenhouse at 25° C. to 30° C. for growth of the plants. When late watergrass, Japanese bulrush, and oval-leafed pondweed were grown to one leaf stage to two leaf stage, the emulsion agent of the compound of the present invention prepared according to Formulation Example 2 was diluted with water so as to achieve a predetermined herbicide amount, and the diluted emulsion agent was applied to the surface of the water. Three weeks after the herbicide application, the effect of the herbicide on each plant was evaluated according to the criteria of Test Example 1.

oval-leafed pondweed [4] = assay: Test Example 2: herbicidal activity, application during weed generation under submerged conditions (Table 17, symbol C); type: in vivo, oval-leafed pondweed (Monochoria vaginalis); conditions: AAH 320 g/ha; application during weed generation, submerged conditions
Description: as §2

barnyard grass [5] = assay: Test Example 3: herbicidal effect by foliage application, Wagner pot (Table 18, symbol H); type: in vivo, barnyard grass (Echinochloa crus-galli); conditions: 320 g/ha
Method in brief: (§3)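 Plants were sown in alluvial soil held under 0.1–0.5 cm standing water and grown 14 days in a greenhouse at 25–30 °C. An emulsifiable formulation, water-diluted to the set dose, was then sprayed onto the foliage, and effects were scored three weeks later using previously defined criteria.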

Chinese sprangletop = assay: Test Example 3: herbicidal effect by foliage application, Wagner pot (Table 18, symbol D); type: in vivo, chinese sprangletop (Leptochloa chinensis); conditions: 320 g/ha
Method in brief: as §3

rice flat sedge = assay: Test Example 3: herbicidal effect by foliage application, Wagner pot (Table 18, symbol E); type: in vivo, rice flat sedge (Cyperus iria); conditions: 320 g/ha
Method in brief: as §3

southern crabgrass [6] = assay: Test Example 4: herbicidal effect by soil treatment (Table 19, symbol F); type: in vivo, southern crabgrass (Digitaria ciliaris); conditions: amount of applied herbicide 320 g/ha
Method in brief: (§4)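 Seeds were sown in sterilized diluvial soil and covered with about 1.5 cm of soil. An emulsion formulation diluted with water to a predetermined herbicide amount was sprayed evenly onto the soil surface. Plants grew in a greenhouse at 25° C. to 30° C., and the effect was scored three weeks after application using criteria from an earlier test.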

green foxtail [7] = assay: Test Example 4: herbicidal effect by soil treatment (Table 19, symbol G); type: in vivo, green foxtail (Setaria viridis); conditions: amount of applied herbicide 320 g/ha
Method in brief: as §4

barnyard grass [8] = assay: Test Example 4: herbicidal effect by soil treatment (Table 19, symbol H); type: in vivo, barnyard grass (Echinochloa crus-galli); conditions: amount of applied herbicide 320 g/ha
Method in brief: as §4

wild oat [9] = assay: Test Example 4: herbicidal effect by soil treatment (Table 19, symbol I); type: in vivo, wild oat (Avena fatua); conditions: amount of applied herbicide 320 g/ha
Method in brief: as §4

blackgrass [10] = assay: Test Example 4: herbicidal effect by soil treatment (Table 19, symbol J); type: in vivo, blackgrass (Alopecurus myosuroides); conditions: amount of applied herbicide 320 g/ha
Method in brief: as §4

Italian ryegrass [11] = assay: Test Example 4: herbicidal effect by soil treatment (Table 19, symbol K); type: in vivo, Italian ryegrass (Lolium multiflorum); conditions: amount of applied herbicide 320 g/ha
Method in brief: as §4

velvetleaf [12] = assay: Test Example 4: herbicidal effect by soil treatment (Table 19, symbol M); type: in vivo, velvetleaf (Abutilon theophrasti); conditions: amount of applied herbicide 320 g/ha
Method in brief: as §4

redroot pigweed [13] = assay: Test Example 4: herbicidal effect by soil treatment (Table 19, symbol N); type: in vivo, redroot pigweed (Amaranthus retroflexus); conditions: amount of applied herbicide 320 g/ha
Method in brief: as §4

southern crabgrass [14] = assay: Test Example 5: herbicidal effect by foliage application, plastic box (Table 20, symbol F); type: in vivo, southern crabgrass (Digitaria ciliaris); conditions: foliage application, 320 g/ha, three weeks after application
Method in brief: (§5)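 Plants sown in sterilized diluvial soil and grown 14 days in a greenhouse at 25° C to 30° C, then sprayed on the foliage with the compound's emulsion diluted in water to a predetermined herbicide amount. Injury to weeds and crops scored three weeks after application on a visual rating scale.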

green foxtail [15] = assay: Test Example 5: herbicidal effect by foliage application, plastic box (Table 20, symbol G); type: in vivo, green foxtail (Setaria viridis); conditions: foliage application, 320 g/ha, three weeks after application
Method in brief: as §5

barnyard grass [16] = assay: Test Example 5: herbicidal effect by foliage application, plastic box (Table 20, symbol H); type: in vivo, barnyard grass (Echinochloa crus-galli); conditions: foliage application, 320 g/ha, three weeks after application
Method in brief: as §5

wild oat [17] = assay: Test Example 5: herbicidal effect by foliage application, plastic box (Table 20, symbol I); type: in vivo, wild oat (Avena fatua); conditions: foliage application, 320 g/ha, three weeks after application
Method in brief: as §5

blackgrass [18] = assay: Test Example 5: herbicidal effect by foliage application, plastic box (Table 20, symbol J); type: in vivo, blackgrass (Alopecurus myosuroides); conditions: foliage application, 320 g/ha, three weeks after application
Method in brief: as §5

Italian ryegrass [19] = assay: Test Example 5: herbicidal effect by foliage application, plastic box (Table 20, symbol K); type: in vivo, Italian ryegrass (Lolium multiflorum); conditions: foliage application, 320 g/ha, three weeks after application
Method in brief: as §5

windgrass = assay: Test Example 5: herbicidal effect by foliage application, plastic box (Table 20, symbol L); type: in vivo, windgrass (Apera spica-venti); conditions: foliage application, 320 g/ha, three weeks after application
Method in brief: as §5

velvetleaf [20] = assay: Test Example 5: herbicidal effect by foliage application, plastic box (Table 20, symbol M); type: in vivo, velvetleaf (Abutilon theophrasti); conditions: foliage application, 320 g/ha, three weeks after application
Method in brief: as §5

redroot pigweed [21] = assay: Test Example 5: herbicidal effect by foliage application, plastic box (Table 20, symbol N); type: in vivo, redroot pigweed (Amaranthus retroflexus); conditions: foliage application, 320 g/ha, three weeks after application
Method in brief: as §5

lambsquarters = assay: Test Example 5: herbicidal effect by foliage application, plastic box (Table 20, symbol O); type: in vivo, lambsquarters (Chenopodium album); conditions: foliage application, 320 g/ha, three weeks after application
Method in brief: as §5

chickweed = assay: Test Example 5: herbicidal effect by foliage application, plastic box (Table 20, symbol P); type: in vivo, common chickweed (Stellaria media); conditions: foliage application, 320 g/ha, three weeks after application
Method in brief: as §5

persian speedwell = assay: Test Example 5: herbicidal effect by foliage application, plastic box (Table 20, symbol R); type: in vivo, Persian speedwell (Veronica persica); conditions: foliage application, 320 g/ha, three weeks after application
Method in brief: as §5

## CCOc1ccc(-c2sc3ccccc3c2-c2c(O)c(C)nn(C)c2=O)cc1 [1-013]
Late watergrass
  Herbicidal effect on A: late watergrass (grade 0-5): 4 (Herbicidal rate of 70% or more and less than 90%)
Japanese bulrush [1]
  Herbicidal effect on B: Japanese bulrush (grade 0-5): 4 (Herbicidal rate of 70% or more and less than 90%)
oval-leafed pondweed [2]
  Herbicidal effect on C: oval-leafed pondweed (grade 0-5): 3 (Herbicidal rate of 40% or more and less than 70%)
Japanese bulrush [3]
  herbicidal effect rating, B: Japanese bulrush: 3 (Herbicidal rate of 40% or more and less than 70%)
oval-leafed pondweed [4]
  herbicidal effect rating, C: oval-leafed pondweed: 3 (Herbicidal rate of 40% or more and less than 70%)
Barnyard grass [5]
  herbicidal effect on H (barnyard grass), rating 0-5: 5 (Herbicidal rate of 90% or more (almost completely withered))
Chinese sprangletop
  herbicidal effect on D (Chinese sprangletop), rating 0-5: 1 (Herbicidal rate of 5% or more and less than 20%)
Rice flat sedge
  herbicidal effect on E (rice flat sedge), rating 0-5: 5 (Herbicidal rate of 90% or more (almost completely withered))
Southern crabgrass [6]
  herbicidal effect rating, F: southern crabgrass: 0 (Herbicidal rate of 5% or less (almost no effect))
Green foxtail [7]
  herbicidal effect rating, G: green foxtail: 5 (Herbicidal rate of 90% or more (almost completely withered))
Barnyard grass [8]
  herbicidal effect rating, H: barnyard grass: 4 (Herbicidal rate of 70% or more and less than 90%)
Wild oat [9]
  herbicidal effect rating, I: wild oat: 0 (Herbicidal rate of 5% or less (almost no effect))
Blackgrass [10]
  herbicidal effect rating, J: blackgrass: 0 (Herbicidal rate of 5% or less (almost no effect))
Italian ryegrass [11]
  herbicidal effect rating, K: Italian ryegrass: 0 (Herbicidal rate of 5% or less (almost no effect))
Velvetleaf [12]
  herbicidal effect rating, M: velvetleaf: 0 (Herbicidal rate of 5% or less (almost no effect))
Redroot pigweed [13]
  herbicidal effect rating, N: redroot pigweed: 3 (Herbicidal rate of 40% or more and less than 70%)
Southern crabgrass [14]
  herbicidal effect grade, F: southern crabgrass: 0 (Herbicidal rate of 5% or less (almost no effect))
Green foxtail [15]
  herbicidal effect grade, G: green foxtail: 5 (Herbicidal rate of 90% or more (almost completely withered))
Barnyard grass [16]
  herbicidal effect grade, H: barnyard grass: 4 (Herbicidal rate of 70% or more and less than 90%)
Wild oat [17]
  herbicidal effect grade, I: wild oat: 0 (Herbicidal rate of 5% or less (almost no effect))
Blackgrass [18]
  herbicidal effect grade, J: blackgrass: 0 (Herbicidal rate of 5% or less (almost no effect))
Italian ryegrass [19]
  herbicidal effect grade, K: Italian ryegrass: 3 (Herbicidal rate of 40% or more and less than 70%)
windgrass
  herbicidal effect grade, L: windgrass: 0 (Herbicidal rate of 5% or less (almost no effect))
Velvetleaf [20]
  herbicidal effect grade, M: velvetleaf: 5 (Herbicidal rate of 90% or more (almost completely withered))
Redroot pigweed [21]
  herbicidal effect grade, N: redroot pigweed: 3 (Herbicidal rate of 40% or more and less than 70%)
lambsquarters
  herbicidal effect grade, O: lambsquarters: 3 (Herbicidal rate of 40% or more and less than 70%)
chickweed
  herbicidal effect grade, P: chickweed: 5 (Herbicidal rate of 90% or more (almost completely withered))
Persian speedwell
  herbicidal effect grade, R: persian speedwell: 5 (Herbicidal rate of 90% or more (almost completely withered))
